Experimental findings from publication PMC8646019, “Azvudine is a thymus-homing anti-SARS-CoV-2 drug effective in treating COVID-19 patients” (Signal Transduction and Targeted Therapy, 2021) are described below.

The nature of data set [1]: Biodistribution and metabolism of remdesivir in rats (UHPLC-MS/MS). The class given is in vivo, Sprague-Dawley rats. The note with it: rat; for Concentration in PBMCs / Concentration in brain / Concentration in epididymis / Concentration in heart / Concentration in liver / Concentration in lung / concentration at 2 h / concentration at 6 h: GS-5734 100 mg/kg i.p.; for Concentration in PBMCs / Concentration in brain / Concentration in epididymis / Concentration in heart / Concentration in liver / Concentration in lung: average n=5; for concentration at 2 h / concentration at 6 h: male, Sprague-Dawley, in vivo, 100 mg/kg. As for the experimental part: 10 male Sprague-Dawley rats (250 ± 25 g) were purchased from Vital River Laboratories Co., LTD (Beijng, China). The rats were divided randomly into two groups with five rats in each, and were administered with GS-5734 at a single dose of 100 mg/kg, i.p. At the time point of 2h and 6h after drug administration, rats in one group were dissected with euthanization and blood samples as well as heart, liver, spleen, lung, kidney, brain, thymus, testis, and epididymis were collected for UHPLC-MS/MS analysis as mentioned above.
The analysis method was like that for FNC expect that the flow rate was set at 0.4 mL/min and the gradient elution was employed using the following program: 0-1.5min, 100-65%B; 1.5-4min, 65-60%B; 4-5min, 60-56%B. Multiple-reaction monitoring (MRM) mode was performed using the characteristic precursor to product ion transitions (Supplementary Table 4b).
The standard curves of blank kidney tissue matrix, plasma matrix and PBMCs matrix were applied for quantitative analysis of GS-5734 and its metabolites. GS-5734, Nuc, Nuc-MP and Nuc-TP were quantified using their own standard curves, and the metabolites of GS-5734 (Ala-Nuc and Nuc-DP) were quantified using Nuc-MP standard curves.
Figure. S4. […] 10 male Sprague-Dawley rats were administered with GS-5734 at a single dose of 100 mg/kg, i.p. At the time point of 2 h and 6 h after drug administration, five rats were dissected. The blood samples as well as heart, liver, spleen, lung, kidney, brain, thymus, testis, and epididymis were collected for UHPLC-MS/MS analysis performed on a UHPLC system (1290 series, Agilent Technologies, US) coupled to a triple quadrupole mass spectrometer (Agilent 6470 QQQ). a.

For data set [2], the system named is SARS-CoV-2 and HCoV-OC43 coronavirus. Briefly: Anti-coronavirus activity in vitro, summary over viruses and cells. In kind it is cell-based. The note with it: depending on viruses or cells.
The nature of data set [3]: Cytotoxicity in Calu-3 cells (Cell Titer 96 Aqueous one Solution Cell Proliferation Assay). The note with it: human, Calu-3, 48 h. The class given is cell-based. As for the experimental part: (§1) The cytotoxicity of the tested drugs in Vero E6 or Calu-3 Cells were determined by Cell Titer 96® Aqueous one Solution Cell Proliferation Assay (Promega, US). To evaluate the antiviral efficacy of the drugs, Vero E6 or Calu-3 cells were cultured overnight in 96-well plate with a density of 4 ×10^4 cells/well. Cells were pre-treated with the different doses of the indicated antivirals for 1 h. Viruses (MOI=0.05) were subsequently added to cells, followed by 1 h incubation. Then, the virus-drug mixture was removed and cells were further cultured with fresh drug-containing medium. At 48 h post infection (pi), the culture supernatant was collected and lysed in Trizol (Thermo, Cat no. 15596018) for further analysis. Remdesivir was tested as reference.

Data set [4] can be described thus: Cytotoxicity in Vero E6 cells (Cell Titer 96 Aqueous one Solution Cell Proliferation Assay). The class given is cell-based. The conditions noted are these: African green monkey, Vero E6, 48 h. Here is the method: as §1
Data set [5] has as its system SARS-CoV-2. In words: Anti-SARS-CoV-2 assay in Vero E6 cells (qRT-PCR of viral RNA copies, CPE). The class given is cell-based.
A further data set relates to HCoV-OC43. In words: Anti-HCoV-OC43 assay in H460 cells (CPE, Western blot, immunofluorescence). The class given is cell-based. Background: In western blotting, separated proteins are transferred to a membrane and probed.
Data set [6] has as its system SARS-CoV-2. In words: Anti-SARS-CoV-2 assay in Calu-3 cells (qRT-PCR). In kind it is cell-based. Background: Real-time PCR tracks product formation cycle by cycle.

Like-named read-outs stand apart in the source and are kept apart here.

As to `C[C@H](NP(=O)(O)OC[C@H]1O[C@@](C#N)(c2ccc3c(N)ncnn23)[C@H](O)[C@@H]1O)C(=O)O` [Ala-Nuc], in data set [1] (2 h), the “Concentration in PBMCs” value came to 0.55 ng/10^6 cells, the Concentration in brain was determined as 24.16 ng/g tissue, the Concentration in epididymis came out at 24.05 ng/g tissue and the Concentration in heart was determined as 3908.49 ng/g tissue. Besides, in data set [1] (2 h), the Concentration in liver was 1304.94 ng/g tissue and the Concentration in lung is reported as 82.87 ng/g tissue. Also, in data set [1] (6 h), the “Concentration in PBMCs” value is given as 0.50 ng/10^6 cells, the Concentration in brain stood at 38.27 ng/g tissue, the Concentration in epididymis was 48.37 ng/g tissue and the Concentration in heart came out at 5730.68 ng/g tissue. In data set [1] (6 h), this compound yielded a Concentration in liver of 416.97 ng/g tissue and a Concentration in lung of 73.42 ng/g tissue.
The EC50 is the concentration needed to bring the measured effect to its halfway point. As a reminder, the CC50 is the concentration giving 50% cytotoxicity. Higher therefore signals lower toxicity to the cells. With `CC(C)OC(=O)[C@H](C)N[P@](=O)(OC[C@@]1(N=[N+]=[N-])O[C@@H](n2ccc(N)nc2=O)[C@@H](F)[C@@H]1O)Oc1ccccc1` [CL-236], the EC50 in data set [2] is 1.2 to 4.3 µM; in the data set with SARS-CoV-2 [5] (Severe acute respiratory syndrome coronavirus 2, Vero C1008, 48 h, Vero E6, MOI 0.05, qRT-PCR, 48 h, read-out: EC50, SARS-CoV-2 RNA replication), 4.31 µM; in the data set on HCoV-OC43 (Betacoronavirus 1, OC43, NCI-H460, evaluated by CPE, read-out: EC50, HCoV-OC43 infection) it was 1.2 µM; with SARS-CoV-2 [6] (Severe acute respiratory syndrome coronavirus 2, Calu-3, MOI 0.05, qRT-PCR, 48 h, read-out: EC50, SARS-CoV-2 RNA replication), 1.2 µM. Besides, in data set [2], the “selective index (SI)” value is recorded as 15–83. For the same compound, the figures for the CC50 at 48 h in data set [3] and in data set [4] were above 102 µM and 66.2 µM, respectively. The “selectivity index (SI)” value in the data set on SARS-CoV-2 [5] (Vero E6) is recorded as 15.35; in the data set on SARS-CoV-2 [6] (Calu-3) it was 83. Moreover, the “cytopathic effect (CPE) of SARS-CoV-2” value with SARS-CoV-2 [5] (Vero E6, 48 h) is “protected the cells from SARS-CoV-2-caused cell death”. The “HCoV-OC43 N protein expression” value in the data set on HCoV-OC43 (Western blot, 48 h) is “decrease in N protein expression”. The SI in the data set with HCoV-OC43 (evaluated by CPE) came out at 20.
As to `N#C[C@@]1(c2ccc3c(N)ncnn23)O[C@H](COP(=O)(O)OP(=O)(O)O)[C@@H](O)[C@H]1O` [Nuc-DP], in data set [1] (2 h), the “Concentration in PBMCs” value is recorded as 0.15 ng/10^6 cells, the Concentration in epididymis is reported as 33.09 ng/g tissue and the Concentration in lung is recorded as 146.16 ng/g tissue. Besides, in data set [1] (6 h), the “Concentration in PBMCs” value is listed as 0.14 ng/10^6 cells, the Concentration in epididymis is on record as 49.65 ng/g tissue and the Concentration in lung is 118.94 ng/g tissue.
Consider `N#C[C@@]1(c2ccc3c(N)ncnn23)O[C@H](COP(=O)(O)O)[C@@H](O)[C@H]1O` [Nuc-MP], for which, in data set [1] (2 h), the “Concentration in PBMCs” value is 0.44 ng/10^6 cells, the Concentration in epididymis amounted to 6493.99 ng/g tissue and the Concentration in lung is reported as 3904.37 ng/g tissue. For the same compound, in data set [1] (6 h), the “Concentration in PBMCs” value is reported as 0.32 ng/10^6 cells, the Concentration in epididymis was 555.72 ng/g tissue and the Concentration in lung is 309.88 ng/g tissue.
Consider `N#C[C@@]1(c2ccc3c(N)ncnn23)O[C@H](COP(=O)(O)OP(=O)(O)OP(=O)(O)O)[C@@H](O)[C@H]1O` [Nuc-TP], for which, in data set [1] (2 h), the “Concentration in PBMCs” value was determined as 12.32 ng/10^6 cells, the Concentration in epididymis is 486.87 ng/g tissue and the Concentration in lung came out at 3168.31 ng/g tissue. Also, in data set [1] (6 h), the “Concentration in PBMCs” value is given as 12.82 ng/10^6 cells, the Concentration in epididymis is on record as 1225.27 ng/g tissue and the Concentration in lung came to 2057.66 ng/g tissue. Moreover, in data set [1] (remdesivir ip, 2 and 6 h), the “level of Nuc-TP in the thymus” value is given as “below the detectable line”.
Take `CCC(CC)COC(=O)[C@H](C)N[P@](=O)(OC[C@H]1O[C@@](C#N)(c2ccc3c(N)ncnn23)[C@H](O)[C@@H]1O)Oc1ccccc1` [Remdesivir, reference compound]: the concentration at 2 h in data set [1] (2 h, average n=5, read-out: Concentration in brain) turned out to be 0.61 ng/g; in data set [1] (2 h, average n=5, read-out: Concentration in epididymis) it was 42.1 ng/g; in data set [1] (2 h, average n=5, read-out: Concentration in heart), 5.12 ng/g; in data set [1] (2 h, average n=5, read-out: Concentration in kidney), 25.4 ng/g; in data set [1] (2 h, average n=5, read-out: Concentration in liver), 38.4 ng/g; in data set [1] (2 h, average n=5, read-out: Concentration in lung), 5.14 ng/g. Besides, the concentration at 2 h turned out to be 39.4 ng/g in data set [1] (2 h, average n=5, read-out: Concentration in spleen); 2.88 ng/g in data set [1] (2 h, average n=5, read-out: Concentration in testis); 29.9 ng/g in data set [1] (2 h, average n=5, read-out: Concentration in thymus). Also, the concentration at 6 h in data set [1] (6 h, average n=5, read-out: Concentration in brain) came out at 0.78 ng/g; in data set [1] (6 h, average n=5, read-out: Concentration in epididymis) it was 0.6 ng/g; in data set [1] (6 h, average n=5, read-out: Concentration in heart) it was 28.6 ng/g; in data set [1] (6 h, average n=5, read-out: Concentration in kidney), 0.84 ng/g; in data set [1] (6 h, average n=5, read-out: Concentration in liver), 13.1 ng/g; in data set [1] (6 h, average n=5, read-out: Concentration in lung), 0.87 ng/g. Also, the concentration at 6 h came out at 0.32 ng/g in data set [1] (6 h, average n=5, read-out: Concentration in spleen) and 2.74 ng/g in data set [1] (6 h, average n=5, read-out: Concentration in thymus).
